Results reported in ChEMBL document CHEMBL5137093, “Improving Drug Delivery While Tailoring Prodrug Activation to Modulate Cmax and Cmin by Optimization of (Carbonyl)oxyalkyl Linker-Based Prodrugs of Atazanavir” (J Med Chem, 2022).

Key:
[1] = Relative Cmax ratio of Atazanavir in Sprague-Dawley rat at 1 ml/kg,iv measured upto 24 hrs by UPLC-MS/MS analysis; format: ADME; details: in vivo
[2] = Half life in Sprague-Dawley rat at 1 ml/kg,iv measured upto 24 hrs by UPLC-MS/MS analysis; format: ADME; details: in vivo
[3] = Metabolic stability in human intestine microsomes assessed as half life; format: ADME, Microsome
[4] = Metabolic stability in monkey liver microsomes assessed as half life in presence of NADPH; format: ADME, Macaca mulatta, Microsome; details: rhesus monkey
[5] = Aqueous stability of the compound in phosphate buffer at pH 6.5 assessed as compound half life measured after 24 hrs by UPLC analysis; format: physicochemical; details: buffer, pH 6.5, 24 h, 24 h
[6] = Relative AUC ratio of Atazanavir in Sprague-Dawley rat at 30 ml/kg,po measured upto 24 hrs by UPLC-MS/MS analysis; format: ADME; details: in vivo
[7] = Metabolic stability in rat liver microsomes assessed as half life in presence of NADPH; format: ADME, Microsome
[8] = Fold ratio of total AUC of Atazanavir in Sprague-Dawley rat at 3 ml/kg,po measured upto 24 hrs by UPLC-MS/MS analysis; format: ADME; details: in vivo
[9] = AUClast in Sprague-Dawley rat at 3 ml/kg,po measured upto 24 hrs by UPLC-MS/MS analysis; format: ADME; set-up: time < 24 hrs, dose 3 ml/kg, route po; details: Sprague-Dawley, in vivo, 3 ml/kg
[10] = Relative Cmax ratio of Atazanavir in Sprague-Dawley rat at 3 ml/kg,po measured upto 24 hrs by UPLC-MS/MS analysis; format: ADME; details: in vivo
[11] = Half life in rat hepatocyte measured upto 120 mins by UPLC-MS/MS analysis; format: ADME, cell-based; details: hepatocytes
[12] = Ratio of Cmax/Cmin of Atazanavir in Sprague-Dawley rat at 30 ml/kg,po measured after 24 hrs by UPLC-MS/MS analysis; format: ADME; details: in vivo
[13] = Metabolic stability in dog intestine microsomes assessed as half life; format: ADME, Canis lupus familiaris, Microsome
[14] = Metabolic stability in dog liver microsomes assessed as half life; format: ADME, Canis lupus familiaris, Microsome
[15] = Half life in rat hepatocyte measured upto 120 mins in presence of PMSF and ABT by UPLC-MS/MS analysis; format: ADME, cell-based; details: hepatocytes, with PMSF and ABT
[16] = Cmax in Sprague-Dawley rat at 3 ml/kg,po measured upto 24 hrs by UPLC-MS/MS analysis; format: ADME; set-up: dose 3 ml/kg, time < 24 hrs, route po; details: Sprague-Dawley, in vivo, 3 ml/kg
[17] = Ratio of AUC of Atazanavir in Sprague-Dawley rat at 3 ml/kg,po measured upto 24 hrs by UPLC-MS/MS analysis; format: ADME; details: in vivo
[18] = Fold ratio of total AUC of Atazanavir in Sprague-Dawley rat at 1 ml/kg,iv measured upto 24 hrs by UPLC-MS/MS analysis; format: ADME; details: in vivo
[19] = Tmax in Sprague-Dawley rat at 3 ml/kg,po measured upto 24 hrs by UPLC-MS/MS analysis; format: ADME; details: Sprague-Dawley, in vivo, read-out: Tmax
[20] = Cmin in Sprague-Dawley rat at 1 ml/kg,iv measured after 24 hrs by UPLC-MS/MS analysis; format: ADME; details: in vivo, read-out: Cmin
[21] = Metabolic stability in human liver microsomes assessed as half life in presence of NADPH; format: ADME, Microsome
[22] = Metabolic stability in human liver microsomes assessed as half life; format: ADME, Microsome
[23] = Aqueous solubility of compound at pH 4 by UPLC analysis; format: physicochemical; details: buffer
[24] = Metabolic stability in dog intestine microsomes assessed as half life in presence of NADPH; format: ADME, Canis lupus familiaris, Microsome
[25] = Cmax in Sprague-Dawley rat at 30 ml/kg,po measured upto 24 hrs by UPLC-MS/MS analysis; format: ADME; set-up: time < 24 hrs, dose 30 ml/kg, route po; details: in vivo
[26] = Metabolic stability in monkey intestine microsomes assessed as half life in presence of NADPH; format: ADME, Macaca mulatta, Microsome; details: rhesus monkey
[27] = Metabolic stability in rat liver microsomes assessed as half life; format: ADME, Microsome
[28] = Cmax in Sprague-Dawley rat at 1 ml/kg,iv measured upto 24 hrs by UPLC-MS/MS analysis; format: ADME; set-up: dose 1 ml/kg, time < 24 hrs, route iv; details: in vivo
[29] = Clearance in Sprague-Dawley rat at 1 ml/kg,iv measured upto 24 hrs by UPLC-MS/MS analysis; format: ADME; details: in vivo
[30] = Ratio of AUC of Atazanavir in Sprague-Dawley rat at 1 ml/kg,iv measured upto 24 hrs by UPLC-MS/MS analysis; format: ADME; details: in vivo
[31] = Ratio of Cmax/Cmin of Atazanavir in Sprague-Dawley rat at 1 ml/kg,iv measured after 24 hrs by UPLC-MS/MS analysis; format: ADME; details: in vivo
[32] = Metabolic stability in rat intestine microsomes assessed as half life in presence of NADPH; format: ADME, Microsome
[33] = Ratio of AUC of Atazanavir in Sprague-Dawley rat at 30 ml/kg,po measured upto 24 hrs by UPLC-MS/MS analysis; format: ADME; details: in vivo
[34] = Volume of distribution at steady state in Sprague-Dawley rat at 1 ml/kg,iv measured upto 24 hrs by UPLC-MS/MS analysis; format: ADME; details: in vivo, read-out: Vdss
[35] = Metabolic stability in monkey intestine microsomes assessed as half life; format: ADME, Macaca mulatta, Microsome; details: rhesus monkey
[36] = Metabolic stability in monkey liver microsomes assessed as half life; format: ADME, Macaca mulatta, Microsome; details: rhesus monkey
[37] = AUClast in Sprague-Dawley rat at 30 ml/kg,po measured upto 24 hrs by UPLC-MS/MS analysis; format: ADME; set-up: time < 24 hrs, dose 30 ml/kg, route po; details: in vivo
[38] = Aqueous solubility of compound at pH 1 by UPLC analysis; format: physicochemical; details: buffer
[39] = Relative AUC ratio of Atazanavir in Sprague-Dawley rat at 3 ml/kg,po measured upto 24 hrs by UPLC-MS/MS analysis; format: ADME; details: in vivo
[40] = Ratio of Cmax/Cmin of Atazanavir in Sprague-Dawley rat at 3 ml/kg,po measured after 24 hrs by UPLC-MS/MS analysis; format: ADME; details: in vivo
[41] = Relative Cmax ratio of Atazanavir in Sprague-Dawley rat at 30 ml/kg,po measured upto 24 hrs by UPLC-MS/MS analysis; format: ADME; details: in vivo
[42] = Metabolic stability in rat intestine microsomes assessed as half life; format: ADME, Microsome
[43] = Metabolic stability in dog liver microsomes assessed as half life in presence of NADPH; format: ADME, Canis lupus familiaris, Microsome
[44] = Tmax in Sprague-Dawley rat at 30 ml/kg,po measured upto 24 hrs by UPLC-MS/MS analysis; format: ADME; details: in vivo
[45] = AUClast in Sprague-Dawley rat at 1 ml/kg,iv measured upto 24 hrs by UPLC-MS/MS analysis; format: ADME; set-up: dose 1 ml/kg, time < 24 hrs, route iv; details: in vivo
[46] = Metabolic stability in human intestine microsomes assessed as half life in presence of NADPH; format: ADME, Microsome
[47] = Fold ratio of total AUC of Atazanavir in Sprague-Dawley rat at 30 ml/kg,po measured upto 24 hrs by UPLC-MS/MS analysis; format: ADME; details: in vivo
[48] = Relative AUC ratio of Atazanavir in Sprague-Dawley rat at 1 ml/kg,iv measured upto 24 hrs by UPLC-MS/MS analysis; format: ADME; details: in vivo
[49] = Half life in rat hepatocyte measured upto 120 mins in presence of ABT by UPLC-MS/MS analysis; format: ADME, cell-based; details: hepatocytes, with ABT
[50] = Half life in rat hepatocyte measured upto 120 mins in presence of PMSF by UPLC-MS/MS analysis; format: ADME, cell-based; details: hepatocytes, with PMSF

Ratio [1]: 2.07
half-life [2]: 6 h
half-life [3]: 1.83 h
half-life [4]: 9 min
t1/2 [5]: 4.9 h
Ratio [6]: 1.32
half-life [7]: 0.833 h
Ratio [8]: 6.8
AUC(0-t) at 24 h [9]: 0.044 µM·h
Ratio [10]: 3.8
half-life [11]: 0.35 h
Ratio [12]: 329.4
half-life [13]: > 2 h
half-life [14]: 4.82 h
half-life [15]: 1.43 h
Cmax [16]: 19 nM
Ratio [17]: 0.02
Ratio [18]: 7.3
Tmax [19]: 0.6 h
concentration at 24 h [20]: 2 nM
half-life [21]: 1.18 h
half-life [22]: 2.82 h
solubility [23]: > 2300 µg/mL
half-life [24]: 0.883 h
Cmax [25]: 189 nM
half-life [26]: 0.4 h
half-life [27]: 3.73 h
Cmax [28]: 151 nM
clearance [29]: 102 mL/min/kg
Ratio [30]: 0.04
Ratio [31]: 1040.4
half-life [32]: 1.78 h
Ratio [33]: 0.02
Vd [34]: 35 L/kg
half-life [35]: > 2 h
half-life [36]: 2.45 h
AUC(0-t) at 24 h [37]: 0.601 µM·h
solubility [38]: > 2100 µg/mL
Ratio [39]: 6.7
Ratio [40]: 204.8
Ratio [41]: 2.1
half-life [42]: > 2 h
half-life [43]: 9 min
Tmax [44]: 0.8 h
AUC(0-t) at 24 h [45]: 0.17 µM·h
half-life [46]: 0.967 h
Ratio [47]: 1.35
Ratio [48]: 7
half-life [49]: 0.433 h
half-life [50]: 1.43 h
SMILES: COC(=O)N[C@H](C(=O)N[C@@H](Cc1ccccc1)[C@H](CN(Cc1ccc(-c2ccccn2)cc1)NC(=O)[C@@H](NC(=O)OC)C(C)(C)C)OC(=O)OC(OC(=O)[C@@H](N)C(C)C)C(C)C)C(C)(C)C (stereo in doubt; 3s)
